{
  "source": "patent US8487131B2",
  "about": "(Sanford-Burnham Medical Research Institute, priority 2009, dated 2013)",
  "key": {"[1]": {"details": "rat, 40 min", "description": "(§1) Next, we examined the pharmacological properties of the isomers as chirality could greatly affect such properties due to stereoselective metabolism. To test the pharmacological properties of diastereoisomers 11-14, we determined their in vitro rat plasma stability, rat microsomal stability, and cell membrane permeability (Table 4)."}, "[2]": {"assay": "Chemical stability at different temperatures", "format": "physicochemical", "details": "compared to 12-14"}, "[3]": {"tested_on": "Bax/Bak double knockout MEF cells (MEF/DKO)", "assay": "Apoptosis, FITC-Annexin V/PI assay, MEF/DKO", "format": "cell-based, mouse", "details": "for toxicity in MEF/DKO cells: 30 μM, FITC-Annexin V/PI", "procedure": "Wild-type MEF and DKO/MEF were seeded in 24-well plate at a seeding density of half a million per well (in 1 ml of DMEM medium supplemented by 10% FCS). […] On the following day, floating cells were pooled with adherent cells harvested after brief incubation with 0.25% Trypsin/EDTA solution (Gibco/In-Vitrogen Inc.). Cells were centrifuged and supernatant was discarded, and cell pellet was re-suspended with 0.2 ml of Annexin-V binding buffer, followed by addition of 1 μl Annexin-FITC and 1 μl PI (propidium iodide). The percentage of viable cells was determined by a 3-color FACSort instrument and data analyzed by Flow-Jo program, scoring Annexin V-negative, PI-negative as viable cells."}, "[4]": {"assay": "In vitro rat plasma stability", "format": "in vitro ADME", "description": "as §1"}, "[5]": {"assay": "Cell membrane permeability (PAMPA, LogPe)", "format": "in vitro ADME", "details": "compared to 12-14", "description": "as §1"}, "Mcl-1": {"molecular_target": "Mcl-1 (Homo sapiens, UniProt Q07820)", "sequence (Q07820 whole entry)": "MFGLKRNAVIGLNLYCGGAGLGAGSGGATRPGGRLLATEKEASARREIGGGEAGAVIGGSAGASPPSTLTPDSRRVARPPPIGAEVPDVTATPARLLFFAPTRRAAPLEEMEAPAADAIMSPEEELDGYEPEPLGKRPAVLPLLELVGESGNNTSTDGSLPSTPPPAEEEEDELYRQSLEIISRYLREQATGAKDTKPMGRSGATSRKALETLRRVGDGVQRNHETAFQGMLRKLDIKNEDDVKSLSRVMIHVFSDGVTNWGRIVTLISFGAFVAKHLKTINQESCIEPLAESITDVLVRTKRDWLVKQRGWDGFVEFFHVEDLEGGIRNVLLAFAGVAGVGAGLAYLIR", "assay": "2D [15N,1H]-TROSY NMR binding, Mcl-1", "details": "2D TROSY, ligand/protein ratio of 2:1"}, "[6]": {"tested_on": "wild type mouse embryonic fibroblast cells (MEF/WT)", "assay": "Apoptosis, FITC-Annexin V/PI assay, MEF/WT", "format": "cell-based", "details": "30 μM", "procedure": "Wild-type MEF and DKO/MEF were seeded in 24-well plate at a seeding density of half a million per well (in 1 ml of DMEM medium supplemented by 10% FCS). Next day, compound was added to wild-type and DKO cells at final concentration of 0, 2.5, 5.0, 7.5, 10 and 30 μM. On the following day, floating cells were pooled with adherent cells harvested after brief incubation with 0.25% Trypsin/EDTA solution (Gibco/In-Vitrogen Inc.). Cells were centrifuged and supernatant was discarded, and cell pellet was re-suspended with 0.2 ml of Annexin-V binding buffer, followed by addition of 1 μl Annexin-FITC and 1 μl PI (propidium iodide). The percentage of viable cells was determined by a 3-color FACSort instrument and data analyzed by Flow-Jo program, scoring Annexin V-negative, PI-negative as viable cells."}, "[7]": {"tested_on": "Bcl-2 transgenic mice (B6Bcl2)", "assay": "Bcl-2 transgenic mice, spleen weight", "format": "in vivo, mouse", "details": "for in vivo activity in Bcl-2 transgenic mice: single i.p. 42 mg/kg", "procedure": "Transgenic mice expressing Bcl-2 have been described as the B6 line.^48 The BCL-2 transgene represents a minigene version of a t(14;18) translocation in which the human BCL-2 gene is fused with the immunoglobulin heavy-chain (IgH) locus and associated IgH enhancer. The transgene was propagated on the Balb/c background.\nAfter 24 hours, B6Bcl2 mice were sacrificed by intraperitoneal injection of lethal dose of Avertin. Spleen was removed and weighed."}, "M2182 cells": {"tested_on": "M2182 cells", "assay": "Prostate cancer xenograft in athymic nude mice", "format": "in vivo, mouse", "details": "for inhibitory effect of tumor size compared with the control group: all doses, i.p. every 2 days", "protocol": "Cells were then selected for 2 weeks in 200 μg/ml of hygromycin, and individual colonies were isolated, expanded, and maintained in 5 μg/m1 hygromycin. The overexpression of luciferase in these clones was confirmed by measuring luciferase activity.\nM2182-Luc cells (1×10^6) were injected s.c. in 100 μL of PBS in the left and right flanks of male athymic nude mice (NCR^nu/nu, 4 weeks old, 20 g body weight) as described previously.^40 After establishing visible tumors of ˜75-mm^3, requiring ˜5-6 days, compound dissolved in 500 μL of solvent (ethanol/Cremophor EL/saline=10:10:80) were injected intraperitoneally (i.p.). The injections were given every 2 days for a total of nine injections. […] A minimum of five animals was used per experimental condition. For in vivo imaging of tumors, the mice were anesthetized and injected i.p. with 150 mg/kg luciferin and light emitted from each tumor was determined using a Xenogen system with CCD camera with an integration time of 1 min. Luminescence measurements were made using Living Image software (version 2.50.1; Xenogen). At the end of the experiment, the animals were sacrificed, and the tumors were removed and photographed."}, "Bcl-XL [8]": {"molecular_target": "T1, Bcl-XL (Homo sapiens, UniProt Q07817)", "T1 sequence (Q07817 whole entry)": "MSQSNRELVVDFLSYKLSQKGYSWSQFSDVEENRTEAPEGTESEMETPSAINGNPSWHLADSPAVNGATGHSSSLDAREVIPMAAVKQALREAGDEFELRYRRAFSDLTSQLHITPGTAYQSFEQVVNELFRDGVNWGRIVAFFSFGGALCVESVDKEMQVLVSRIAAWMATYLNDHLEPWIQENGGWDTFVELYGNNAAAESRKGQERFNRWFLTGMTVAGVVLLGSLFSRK", "assay": "Isothermal Titration Calorimetry assay (ITC)", "format": "binding", "details": "Kd ratio versus 12-14"}, "Bcl-XL [9]": {"molecular_target": "T1, Bcl-XL", "assay": "NMR binding assays (1D 1H-NMR, 2D [15N,1H]-TROSY), Bcl-XL", "details": "2D TROSY at ligand/protein ratio 1:1"}, "H460 cells": {"tested_on": "H460 cells", "assay": "Cell viability, ATP-LITE assay, H460", "format": "cell-based, human", "details": "72 hours of treatment", "procedure": "The activity of the compounds against human cancer cell lines (PC3, H460, H1299) were assessed by using the ATP-LITE assay (PerkinElmer). All cells were seeded in either […] or RPMI1640 medium with 5 mM L-glutamine supplemented with 5% fetal bovine serum (Mediatech Inc.), penicillin and streptomycin (Omega). For maintenance, cells were cultured in 5% FBS. Cells plated into 96 well plates at varying initial densities depending on doubling time. […] Compounds were diluted to final concentrations with 0.1% DMSO. Prior to dispensing compounds onto cells, fresh 5% media was placed into wells. Administration of compounds occurred 24 hours after seeding into the fresh media. Cell viability was evaluated using ATP-LITE reagent (PerkinElmer) after 72 hours of treatment. Data were normalized to the DMSO control-treated cells using Prism version 5.01 (Graphpad Software)."}, "[10]": {"tested_on": "MDA-MB-231 breast cancer cells", "details": "reference 13; read-out: EC50 in killing MDA-MB-231 breast cancer cells; cited from earlier work"}, "BP3 cell line": {"tested_on": "BP3 cell line", "assay": "Apoptosis, Annexin V-FITC and propidium iodide assay, BP3", "format": "cell-based, human", "protocol": "The apoptotic activity of the compounds against BP3 cells was assessed by staining with Annexin V- and propidium iodide (PI). BP3 cell line was cultured in RPMI 1640 medium (Mediatech Inc., Herndon, Va. 20171) containing 10% fetal bovine serum (Mediatech Inc., Herndon, Va. 20171) and Penicillin/Streptomycin (Mediatech Inc., Herndon, Va. 20171). […] The percentage of viable cells was determined by FITC-Annexin V- and propidium iodide (PI)-labeling, using an Apoptosis Detection kit (BioVision Inc.), and analyzing stained cells by flow cytometry (FACSort; Bectin-Dickinson, Inc.; Mountain View, Calif.). Cells that were annexin-V-negative and PI-negative were considered viable."}, "[11]": {"tested_on": "cancer cells that overexpress Mcl-1", "details": "references 32, 36; cited from earlier work"}},
  "note": "Entries after “also recorded” stand apart in the source; their conditions may differ.",
  "data": [
    {"compound": "Cc1cc2c(C(=O)NC[C@@H](C)c3ccccc3)c(O)c(O)cc2c(O)c1-c1c(C)cc2c(C(=O)NC[C@H](C)c3ccccc3)c(O)c(O)cc2c1O", "note": "(atropisomer, axis not shown) [Compound 11]", "values": [
      {"measurement": "microsomal stability", "setting": "[1]", "result": "relatively good microsomal stability"},
      {"measurement": "chemical stability", "setting": "[2]", "result": "better chemical stability"},
      {"measurement": "cytotoxicity against bax−/−bak−/− cells (summary statement)", "setting": "[3]", "result": "less cytotoxicity; also recorded: little cytotoxicity"},
      {"measurement": "toxicity in MEF/DKO cells", "setting": "[3]", "result": "slight toxicity"},
      {"measurement": "Plasma stability (T = 1 h)", "setting": "[4]", "result": 41, "unit": "%"},
      {"measurement": "cell membrane permeability", "setting": "[5]", "result": "superior cell membrane permeability"},
      {"measurement": "NMR binding to Mcl-1", "setting": "Mcl-1", "result": "significant binding"},
      {"measurement": "wild type MEF cells killed", "setting": "[6]", "result": "~70", "unit": "%"},
      {"measurement": "in vivo activity in Bcl-2 transgenic mice", "setting": "[7]", "result": "superior in vivo activity"},
      {"measurement": "spleen weight reduction", "setting": "[7]; single i.p. injection at 42 mg/kg, 24 hours", "result": "more than 30%"},
      {"measurement": "tumor growth inhibited to % of the tumor volume in the control group", "setting": "M2182 cells; 3 mg/kg i.p. every 2 days, nine injections", "result": "~60", "unit": "%"},
      {"measurement": "inhibition of tumor growth in both flanks", "setting": "M2182 cells; 5 mg/kg i.p. every 2 days, nine injections", "result": "near complete inhibition of tumor growth"},
      {"measurement": "inhibitory effect of tumor size compared with the control group", "setting": "M2182 cells", "result": "marked inhibitory effect of tumor size"},
      {"measurement": "times more potent than other isomers 12-14 in ITC assay", "setting": "Bcl-XL [8]", "result": "4-20 times"},
      {"measurement": "NMR binding to Bcl-XL", "setting": "Bcl-XL [9]", "result": "larger chemical shift perturbations; also recorded: low to submicromolar binding affinity"}
    ]},
    {"compound": "Cc1cc2c(C(=O)NCC(C)c3ccccc3)c(O)c(O)cc2c(O)c1-c1c(C)cc2c(C(=O)NCC(C)c3ccccc3)c(O)c(O)cc2c1O", "note": "(racemic) [Compound 4]", "values": [
      {"measurement": "cytotoxicity in MEF/DKO cells compared to isomer 11", "setting": "[3]; 3-30 μM", "result": "higher cytotoxicity in MEF/DKO cells"},
      {"measurement": "inhibitory effect of tumor size", "setting": "M2182 cells; 10 mg/kg i.p. every 2 days, nine injections", "result": "weak inhibitory effect of tumor size"},
      {"measurement": "inhibition of tumor growth in both flanks", "setting": "M2182 cells; 25 mg/kg i.p. every 2 days, nine injections", "result": "near complete inhibition of tumor growth"},
      {"measurement": "inhibitory effect of tumor size compared with the control group", "setting": "M2182 cells", "result": "marked inhibitory effect of tumor size"}
    ]},
    {"compound": "Cc1cc2c(C(=O)NCC(C)c3ccccc3)c(O)c(O)cc2c(O)c1-c1c(C)cc2c(C(=O)NCC(C)c3ccccc3)c(O)c(O)cc2c1O", "note": "(single isomer, unassigned) [Compound 12]", "values": [
      {"measurement": "microsomal stability", "setting": "[1]", "result": "decreased plasma and microsomal stability"},
      {"measurement": "Plasma stability (T = 1 h)", "setting": "[4]", "result": 28, "unit": "%"},
      {"measurement": "plasma stability", "setting": "[4]; compared to other diastereoisomers", "result": "decreased plasma and microsomal stability"},
      {"measurement": "in vivo activity in Bcl-2 transgenic mice", "setting": "[7]", "result": "weak in vivo activity"}
    ]},
    {"compound": "Cc1cc2c(C(=O)NCC(C)c3ccccc3)c(O)c(O)cc2c(O)c1-c1c(C)cc2c(C(=O)NCC(C)c3ccccc3)c(O)c(O)cc2c1O", "note": "(single isomer, unassigned) [Compound 13]", "values": [
      {"measurement": "Plasma stability (T = 1 h)", "setting": "[4]", "result": 42, "unit": "%"}
    ]},
    {"compound": "Cc1cc2c(C(=O)NCC(C)c3ccccc3)c(O)c(O)cc2c(O)c1-c1c(C)cc2c(C(=O)NCC(C)c3ccccc3)c(O)c(O)cc2c1O", "note": "(single isomer, unassigned) [Compound 14]", "values": [
      {"measurement": "toxicity in MEF/DKO cells", "setting": "[3]", "result": "almost equally effective in killing both MEF/WT and MEF/DKO"},
      {"measurement": "Plasma stability (T = 1 h)", "setting": "[4]", "result": 41, "unit": "%"},
      {"measurement": "EC50", "setting": "H460 cells", "result": "0.8 ± 0.09", "unit": "µM"}
    ]},
    {"compound": "Cc1cc2c(C(C)C)c(O)c(O)c(C=O)c2c(O)c1-c1c(C)cc2c(C(C)C)c(O)c(O)c(C=O)c2c1O", "note": "[(+) 1]", "values": [
      {"measurement": "EC50", "setting": "[10]", "result": "~10", "unit": "µM"}
    ]},
    {"compound": "CN(C)CC[C@H](CSc1ccccc1)Nc1ccc(S(=O)(=O)NC(=O)c2ccc(N3CCN(Cc4ccccc4-c4ccc(Cl)cc4)CC3)cc2)cc1[N+](=O)[O-]", "note": "[ABT-737]", "values": [
      {"measurement": "apoptosis induction / cytotoxic activity against BP3 cell line", "setting": "BP3 cell line", "result": "no cytotoxic activity"},
      {"measurement": "effectiveness against cancer cells that overexpress Mcl-1", "setting": "[11]", "result": "not effective"}
    ]}
  ]
}
